The values below come from BindingDB's records for doi:10.1016/j.bioorg.2017.04.006 (China Pharmaceutical University, 2017).

Experiment [1] has as its target Lysine-specific histone demethylase 1A (Homo sapiens, UniProt O60341). The experiment can be described thus: LSD1 Screening Assay. The settings on record: pH 7.5; 25 °C. How it is done: The LSD1 screening biochemical assay was performed by Shanghai ChemPartner Co. Ltd and the detailed protocol was shown as followed. The AlphaLISA assay of LSD1 (BPS Bioscience) was performed in modified Tris buffer (pH 7.5). Briefly, the compoundsin DMSO were transferred to assay plate by Echo 550, followed by pre-incubating with enzyme (final concentration is 5 nM) for 15 min at room temperature. The initiation of reactions were added H3K4me2 peptide solution (final concentration is 100 nM) to the reaction mixtures and then incubated for 60 min at roomtemperature. The reactions were terminated by the addition of the acceptor and donor beads mix (PerkinElmer) and incubated for 60 min at room temperature, and finally read on EnSpire (PerkinElmer) in Alpha Mode.

Experiment [2] deals with T1, Amine oxidase [flavin-containing] A (Homo sapiens, UniProt P21397).
T1 sequence (P21397 whole entry): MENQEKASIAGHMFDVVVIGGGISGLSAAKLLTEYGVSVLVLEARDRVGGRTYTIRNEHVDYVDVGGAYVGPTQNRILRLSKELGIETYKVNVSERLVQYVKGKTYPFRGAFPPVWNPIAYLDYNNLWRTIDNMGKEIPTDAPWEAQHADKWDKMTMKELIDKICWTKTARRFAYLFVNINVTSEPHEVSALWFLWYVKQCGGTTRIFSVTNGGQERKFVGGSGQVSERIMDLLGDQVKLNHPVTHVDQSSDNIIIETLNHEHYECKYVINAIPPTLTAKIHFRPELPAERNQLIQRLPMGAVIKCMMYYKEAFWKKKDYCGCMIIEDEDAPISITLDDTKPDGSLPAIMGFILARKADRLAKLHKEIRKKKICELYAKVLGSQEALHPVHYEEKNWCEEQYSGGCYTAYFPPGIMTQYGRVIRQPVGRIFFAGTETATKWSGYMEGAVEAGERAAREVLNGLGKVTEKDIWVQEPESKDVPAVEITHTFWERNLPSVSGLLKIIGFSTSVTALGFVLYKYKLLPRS
The experiment can be described thus: MAO-A and MAO-B Assay. The source says: (§1) The MAO-A and MAO-B is purchased from Active Motif (Cat#31502, Cat#31503). Biochemical Kit is purchased from Promega (MAO-Glo Assay, V1402). The inhibition of selectivity assay was preformed in light of the manufacturer's protocol.

Experiment [3] has as its target T2, Amine oxidase [flavin-containing] B (Homo sapiens, UniProt P27338).
T2 sequence (P27338 whole entry): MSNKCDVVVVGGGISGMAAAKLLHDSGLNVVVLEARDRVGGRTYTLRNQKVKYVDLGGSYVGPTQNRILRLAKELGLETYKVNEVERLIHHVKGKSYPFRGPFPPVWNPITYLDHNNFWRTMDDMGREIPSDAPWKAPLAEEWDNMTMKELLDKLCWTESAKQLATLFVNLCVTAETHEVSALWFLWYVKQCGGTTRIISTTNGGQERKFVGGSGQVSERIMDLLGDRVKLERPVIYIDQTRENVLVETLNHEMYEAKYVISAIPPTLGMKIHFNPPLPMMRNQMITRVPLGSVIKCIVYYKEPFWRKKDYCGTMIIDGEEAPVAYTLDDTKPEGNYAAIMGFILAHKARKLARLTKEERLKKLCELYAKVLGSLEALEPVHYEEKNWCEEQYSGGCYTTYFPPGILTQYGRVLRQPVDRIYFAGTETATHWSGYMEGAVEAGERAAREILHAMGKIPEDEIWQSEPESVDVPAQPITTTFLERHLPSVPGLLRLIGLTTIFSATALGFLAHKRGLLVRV
The experiment can be described thus: MAO-A and MAO-B Assay.
Source text: as §1

As for `CC(Nc1cc(Cl)ccc1O)C(=O)Nc1cccc(S(=O)(=O)N2CCCCC2)c1` (stereo not drawn) [2-((5-Chloro-2-hydroxyphenyl)amino)-N-(3-(piperidin-1-ylsulfonyl)phenyl)propanamide (7h)], the figures for the IC50 in experiment [1], in experiment [2] and in experiment [3] were 6.9 µM, 114 µM and 102 µM, respectively.
In experiment [1], `CC(Nc1cc(Cl)ccc1O)C(=O)Nc1cccc(S(=O)(=O)N2CCOCC2)c1` (stereo not drawn) [2-((5-Chloro-2-hydroxyphenyl)amino)-N-(3-(morpholinosulfonyl)phenyl)propanamide (7c)] gave an IC50 of 13 µM.
Same read-out and setting: the result for `CC(Nc1cc(Cl)ccc1O)C(=O)Nc1cccc(S(=O)(=O)N(C)C)c1` (stereo not drawn) reads 12 µM; that for `CN(C)S(=O)(=O)c1cccc(NC(=O)CNc2cc(Cl)ccc2O)c1` [2-((5-Chloro-2-hydroxyphenyl)amino)-N-(3-(N,N-dimethylsulfamoyl)phenyl)-acetamide (7d)], 14 µM; that for `C/C(=N\NC(=O)c1cccc(S(=O)(=O)N2CCOCC2)c1)c1cc(Cl)ccc1O` [US8987335, 12], 0.011 µM.
Still for that read-out and setting: the result for `O=C(CNc1cc(Cl)ccc1O)Nc1cccc(S(=O)(=O)N2CCOCC2)c1` [2-((5-Chloro-2-hydroxyphenyl)amino)-N-(3-(morpholinosulfonyl)phenyl)acetamide (7a)] reads 13 µM.
On the same count and under the same terms, the result for `CN(CC(=O)Nc1cccc(S(=O)(=O)N2CCCCC2)c1)c1cc(Cl)ccc1O` [2-((5-Chloro-2-hydroxyphenyl)(methyl)amino)-N-(3-(piperidin-1-ylsulfonyl)phenyl)acetamide (7g)] reads 11 µM.
In the case of `CN(CC(=O)Nc1cccc(S(=O)(=O)N2CCOCC2)c1)c1cc(Cl)ccc1O` [2-((5-Chloro-2-hydroxyphenyl)(methyl)amino)-N-(3-(morpholinosulfonyl)phe-nyl)acetamide (7b)], the IC50 in experiment [1] was found to be 9.5 µM; in experiment [2] it was 187 µM; in experiment [3], 65.7 µM.
`CN(CC(=O)Nc1cccc(S(=O)(=O)N(C)C)c1)c1cc(Cl)ccc1O` [2-((5-Chloro-2-hydroxyphenyl)(methyl)amino)-N-(3-(N,N-dimethylsulfamoyl)phenyl)acetamide (7e)] returned an IC50 in experiment [1] of 13 µM. This counts as double-digit micromolar.
